Experimental data from publication PMC11087268, “A folate inhibitor exploits metabolic differences in Pseudomonas aeruginosa for narrow-spectrum targeting” (Nature Microbiology, 2024).
Several values for one entry are separate records, joined by “and”; a condition that tells them apart may be missing. Equal values may be shown once.

Experiments:
[1] = Pharmacokinetic analysis after single oral dose; type: in vivo, mouse
Method: For pharmacokinetics determination, care and handling of male CD-1 mice approximately 6–8 weeks old conformed to institutional animal care and use policies as carried out at Pharmaron.
Pharmacokinetic properties were determined after a single dose of 200 mg kg^−1 fluorofolin given orally (PO). Plasma samples were taken from three mice at times 0.083, 0.25, 0.5, 1, 2, 4, 8 and 24 h, and quantitative analysis was performed using LC–MS/MS. Half-life was determined from plasma concentration after fluorofolin levels reached pseudo-equilibrium (4 h for mouse 1 and 2, and 2 h for mouse 3). Pharmacokinetic values were estimated using a non-compartmental model generated from WinNonlin 6.1. Pharmacokinetic analysis was carried out by Pharmaron.

[2] = tested on: E. cloacae; experiment: Growth with or without TMI supplementation and fluorofolin, E. cloacae; type: cell-based, Enterobacter cloacae; details: fluorofolin 2X MIC
Method: Where listed, growth media were prepared according manufacturer recommendations: LB broth and LB broth supplemented with 0.3 mM thymine (BD Biosciences 244610, Alfa Aesar A15879), 0.3 mM methionine (Sigma-Aldrich M9625), 0.3 mM inosine (EMD Millipore 4060), cation-adjusted Mueller–Hinton II broth (CAMHB) (BD 212322) or 0.3 mM thymidine (Sigma-Aldrich T1895), Gutnick minimal media (1.0 g l^−1 K2SO4, 13.5 g l^−1 K2HPO4, 4.7 g l^−1 KH2PO4, 0.1 g l^−1 MgSO4·7H2O, 10 mM NH4Cl as a nitrogen source and 0.4% w/v glucose as a carbon source)[65].
Extended Data Fig. 3 TMI supplementation can also rescue other species from fluorofolin DHFR inhibition. […] (f) P. aeruginosa PA14 or E. coli lptd4213 treated with fluorofolin 50 μg/mL in the presence or absence of 0.3 mM thymidine. (g) E. coli lptd4213 treated with fluorofolin 50 μg/mL and SMX (78.1 μg/mL) in the presence or absence of 0.3 mM thymidine or 0.3 mM TMI supplementation, Curves represent average optical at 600 nm (OD600) of 2 biological replicates. Means are shown. Source data

[3] = tested on: E. coli MG1655; experiment: Growth of E. coli MG1655 in TMI-supplemented media with fluorofolin; type: cell-based, Escherichia coli; details: for OD600 of E. coli MG1655: Fluorofolin + TMI
[4] = CD-1 mice, 200 mg/kg PO, mean of three mice
[5] = male, mouse, plasma, CD-1 mice, 200 mg/kg PO, mean of three mice

## Nc1nc(N)c2c(ccc3c2ccn3Cc2ccnc(F)c2)n1 [fluorofolin]
[1]; 0.083 h after 200 mg kg^−1 PO, one value per mouse
  plasma concentration: 1290 ng/mL and 1470 ng/mL
[1]; 0.25 h after 200 mg kg^−1 PO, one value per mouse
  plasma concentration: 2880 ng/mL and 2500 ng/mL
[1]; 0.5 h after 200 mg kg^−1 PO, one value per mouse
  plasma concentration: 3070 ng/mL and 2970 ng/mL
[1]; 1 h after 200 mg kg^−1 PO, one value per mouse
  plasma concentration: 3980 ng/mL and 3260 ng/mL
[1]; 2 h after 200 mg kg^−1 PO, one value per mouse
  plasma concentration: 4080 ng/mL and 3760 ng/mL
[1]; 4 h after 200 mg kg^−1 PO, one value per mouse
  plasma concentration: 4460 ng/mL and 3060 ng/mL
[1]; 8 h after 200 mg kg^−1 PO, one value per mouse
  plasma concentration: 2580 ng/mL and 1400 ng/mL
[1]; 24 h after 200 mg kg^−1 PO, one value per mouse
  plasma concentration: 430 ng/mL and 287 ng/mL and 1740 ng/mL
[1]; [4]
  AUC_% Extrap_obs: 23.3970%
  AUC_last/D: 231.6700 h*ng/mL per mg/kg
[1]; CD-1 mice, 200 mg/kg PO, mean of three mice, 200 mg/kg
  T1/2: 12.1050 h
[1]; male, CD-1, mouse, plasma, po, 200 mg kg^−1, 0.083 h after 200 mg kg^−1 PO, one value per mouse
  concentration at 0.083 h: 880 ng/mL
[1]; male, CD-1, mouse, plasma, po, 200 mg kg^−1, 0.25 h after 200 mg kg^−1 PO, one value per mouse
  concentration at 0.25 h: 2220 ng/mL
[1]; male, CD-1, mouse, plasma, po, 200 mg kg^−1, 0.5 h after 200 mg kg^−1 PO, one value per mouse
  concentration at 0.5 h: 2810 ng/mL
[1]; male, CD-1, mouse, plasma, po, 200 mg kg^−1, 1 h after 200 mg kg^−1 PO, one value per mouse
  concentration at 1 h: 2930 ng/mL
[1]; male, CD-1, mouse, plasma, po, 200 mg kg^−1, 2 h after 200 mg kg^−1 PO, one value per mouse
  concentration at 2 h: 3640 ng/mL
[1]; male, CD-1, mouse, plasma, po, 200 mg kg^−1, 4 h after 200 mg kg^−1 PO, one value per mouse
  concentration at 4 h: 3460 ng/mL
[1]; male, CD-1, mouse, plasma, po, 200 mg kg^−1, 8 h after 200 mg kg^−1 PO, one value per mouse
  concentration at 8 h: 1640 ng/mL
[1]; male, CD-1, mouse, plasma, po, 200 mg/kg, CD-1 mice, 200 mg/kg PO, mean of three mice
  half-life: 12.1 h
[1]; [5]
  AUC(0-inf): 68800 ng·h/mL
  AUC(0-t): 46300 ng·h/mL
  Cmax: 3950 ng/mL
  Tmax: 2.67 h
[1]; male, mouse, plasma, CD-1 mice, 200 mg/kg PO, mean of three mice, read-out: MRT_Inf_obs
  MRT inf: 18.2 h
[1]; mice, oral administration
  peak concentration: 4.0 µg/mL
[2]
  rescue of growth inhibition by TMI supplementation: could also be rescued from fluorofolin growth inhibition by TMI supplementation
[3]; E. coli MG1655, 0.3 mM TMI, fluorofolin 2× MIC
  rescue of growth inhibition by TMI supplementation: could also be rescued with TMI supplementation
[3]; Time 10 min
  OD600 of E. coli MG1655: 0.007
[3]; Time 70 min
  OD600 of E. coli MG1655: 0.0105
[3]; Time 80 min
  OD600 of E. coli MG1655: 0.012
[3]; Time 90 min
  OD600 of E. coli MG1655: 0.0135
[3]; Time 100 min
  OD600 of E. coli MG1655: 0.015
[3]; Time 110 min
  OD600 of E. coli MG1655: 0.0175
[3]; Time 120 min
  OD600 of E. coli MG1655: 0.0195
[3]; Time 130 min
  OD600 of E. coli MG1655: 0.0225
[3]; Time 140 min
  OD600 of E. coli MG1655: 0.025
[3]; Time 150 min
  OD600 of E. coli MG1655: 0.028
[3]; Time 160 min
  OD600 of E. coli MG1655: 0.0305
[3]; Time 170 min
  OD600 of E. coli MG1655: 0.0345
[3]; Time 180 min
  OD600 of E. coli MG1655: 0.038
[3]; Time 190 min
  OD600 of E. coli MG1655: 0.042
[3]; Time 200 min
  OD600 of E. coli MG1655: 0.0465
[3]; Time 210 min
  OD600 of E. coli MG1655: 0.052
[3]; Time 220 min
  OD600 of E. coli MG1655: 0.0575
[3]; Time 230 min
  OD600 of E. coli MG1655: 0.0625
[3]; Time 240 min
  OD600 of E. coli MG1655: 0.068
[3]; Time 250 min
  OD600 of E. coli MG1655: 0.0745
[3]; Time 260 min
  OD600 of E. coli MG1655: 0.0815
[3]; Time 270 min
  OD600 of E. coli MG1655: 0.0875
[3]; Time 280 min
  OD600 of E. coli MG1655: 0.094
[3]; Time 290 min
  OD600 of E. coli MG1655: 0.1
[3]; Time 300 min
  OD600 of E. coli MG1655: 0.105
[3]; Time 310 min
  OD600 of E. coli MG1655: 0.1105
[3]; Time 320 min
  OD600 of E. coli MG1655: 0.1155
[3]; Time 330 min
  OD600 of E. coli MG1655: 0.1215
[3]; Time 340 min
  OD600 of E. coli MG1655: 0.1265
[3]; Time 350 min
  OD600 of E. coli MG1655: 0.132
[3]; Time 360 min
  OD600 of E. coli MG1655: 0.136
[3]; Time 370 min
  OD600 of E. coli MG1655: 0.14
[3]; Time 380 min
  OD600 of E. coli MG1655: 0.1435
[3]; Time 390 min
  OD600 of E. coli MG1655: 0.147
[3]; Time 400 min
  OD600 of E. coli MG1655: 0.151
[3]; Time 410 min
  OD600 of E. coli MG1655: 0.155
